In US20260158056A1, “USE OF LOW MOLECULAR WEIGHT HYALURONIC ACID FOR THE TREATMENT OF LUNG MUCOSAL INFLAMMATION” (INSTITUT NATIONAL DE LA SANTÉ ET DE LA RECHERCHE MÉDICALE, priority 2021, published 2026):

Tested on: IL-8 secreted by F508del/F508del CF human airway epithelial cells
Experiment: IL-8 ELISA, CF airway epithelial cells cultured at the air-liquid interface (ALI), treatment during regeneration and differentiation
Type: cell-based
Method: FIG. 1: Measurement by ELISA assay of the pro-inflammatory chemokine IL-8 secreted by F508del/F508del CF human airway epithelial cells cultured at the air-liquid interface (ALI). Airway epithelial cells were seeded in bi-compartmental chambers and cultured in liquid-liquid condition until confluence was reached. At confluence, culture medium from the upper chamber was removed to create an air-liquid interface (ALI) that will favor epithelial cell differentiation. From the ALI creation, the different treatments (15-45 kDa sodium-hyaluronic acid (HA-Na 15-45 kDa) (ARD—Pomacle—France—as prepared according to WO2004050187), 15-30 kDa sodium-hyaluronic acid (HA-Na 15-30 kDa) (Sigma Aldrich) or 30-50 kDa sodium-hyaluronic acid (HA-Na 30-50 kDa) (Sigma Aldrich) were added at 1 mg/mL to the culture medium in the basal chamber. The culture medium was renewed three times a week. At ALI day 15, the culture medium was replaced by fresh medium without any treatment. After a 4 h-period, this culture medium was collected and the IL-8 content was determined by ELISA assay. n=5 different F508del/F508del CF patients. p<0.001 (***); p<0.01 (**); p<0.05 (*). ns: non-significant.
FIG. 4: Measurement by ELISA assay of the pro-inflammatory chemokine IL-8 secreted by F508del/F508del CF human airway epithelial cells cultured at the air-liquid interface (ALI). Airway epithelial cells were seeded in bi-compartmental chambers and cultured in liquid-liquid condition until confluence was reached. At confluence, culture medium from the upper chamber was removed to create an air-liquid interface (ALI) that will favor epithelial cell differentiation. From the ALI creation, the different treatments (15-45 kDa sodium-hyaluronic acid (HA-Na 15-45 kDa) (ARD—Pomacle—France—as prepared according to WO2004050187), 15-45 kDa calcium-hyaluronic acid (HA-Ca 15-45 kDa; ARD), or 15-45 kDa potassium-hyaluronic acid (HA-K 15-45 kDa; ARD) were added at 1 mg/mL to the culture medium in the basal chamber. The culture medium was renewed three times a week. At ALI day 15, the culture medium was replaced by fresh medium without any treatment. After a 4 h-period, this culture medium was collected and the IL-8 content was determined by ELISA assay. n=4 different F508del/F508del CF patients. p<0.001 (***); p<0.01 (**); p<0.05 (*). ns: Non-significant.
FIG. 7: Measurement by ELISA assay of the pro-inflammatory chemokine IL-8 secreted by F508del/F508del CF human airway epithelial cells cultured at the air-liquid interface (ALI). Airway epithelial cells were seeded in bi-compartmental chambers and cultured in liquid-liquid condition until confluence was reached. At confluence, culture medium from the upper chamber was removed to create an air-liquid interface (ALI) that will favor epithelial cell differentiation. From the ALI creation, 15-45 kDa sodium-hyaluronic acid (HA-Na 15-45 kDa) (ARD—Pomacle—France—as prepared according to WO2004050187) was added at 0.1 mg/mL, 0.5 mg/mL, 1 mg/mL and 2 mg/mL to the culture medium in the basal chamber. The culture medium was renewed three times a week. At ALI day 15, the culture medium was replaced by fresh medium without any treatment. After a 4 h-period, this culture medium was collected and the IL-8 content was determined by ELISA assay. n=3 different F508del/F508del CF patients. p<0.001 (***); p<0.01 (**); p<0.05 (*). ns: non-significant.

[1] = FIG. 1, 1 mg/mL from ALI creation, ALI day 15, vs control condition, n=5 CF patients
[2] = FIG. 4, 1 mg/mL from ALI creation, ALI day 15, vs control condition, n=4 CF patients

Row | Substance | decrease in IL-8 secretion [1] | decrease in IL-8 secretion [2] | decrease in IL-8 secretion (FIG. 7, 0.1 mg/mL, ALI day 15, n=3 CF patients) | decrease in IL-8 secretion (FIG. 7, 0.5 mg/mL, ALI day 15, n=3 CF patients) | decrease in IL-8 secretion (FIG. 7, 1 mg/mL, ALI day 15, n=3 CF patients) | decrease in IL-8 secretion (FIG. 7, 2 mg/mL, ALI day 15, n=3 CF patients)
1 | 15-30 kDa sodium-hyaluronic acid [HA-Na 15-30 kDa] | 57% | – | – | – | – | –
2 | 15-45 kDa calcium-hyaluronic acid [HA-Ca 15-45 kDa] | – | 59.25% | – | – | – | –
3 | 15-45 kDa sodium-hyaluronic acid [HA-Na 15-45 kDa] | 52% | 55.5% | does not have anymore effect | 47.3% | 62% | 65%
4 | 30-50 kDa sodium-hyaluronic acid [HA-Na 30-50 kDa] | 67.2% | – | – | – | – | –
